Measurements from US20230398080A1, “FLOATING DRUG DELIVERY SYSTEMS COMPRISING CANNABINOIDS” (YISSUM RESEARCH DEVELOPMENT COMP ANY OF THE HEBREW …, priority 2020, published 2023).

Assay: THC-CBD-Metoprolol intra-colon vs oral administration in the freely moving rat model
Details: for absorption through the colon in comparison to PO administration: lipid-based self-nano emulsifying formulation via colonic cannula vs PO, CBD 15 mg/kg, THC 20 or 10 mg/kg

| Compound | AUC after administration through the colon in comparison to PO administration (colonic cannula vs PO, metoprolol 20 or 15 mg/kg) | absorption through the colon in comparison to PO administration |
| --- | --- | --- |
| COCCc1ccc(OCC(O)CNC(C)C)cc1 (stereo not drawn) [Metoprolol] | approximately 4 fold | – |
| CCCCCc1cc(O)c2c(c1)OC(C)(C)[C@@H]1CCC(C)=C[C@@H]21 [THC, tetrahydrocannabinol] | – | practically not absorbed through the colon |
| C=C(C)[C@@H]1CCC(C)=C[C@H]1c1c(O)cc(CCCCC)cc1O [CBD, cannabidiol] | – | practically not absorbed through the colon |
